Laboratory results as given in patent publication US6355799B1, “Substituted benzene compounds, process for their preparation, and herbicidal and defoliant compositions containing them” (ISK Americas Incorporated, priority 1997, dated 2002).

Columns and labels:
Assay type in all cases: in vivo
[1] = test system: johnsongrass (Sorghum halepense, SORHA); test: Pre-emerge test, greenhouse herbicide activity screening; settings: pre-emerge, rated 14 days after application, 0 = no damage, 100 = complete death
Procedure, shortened: (§1)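 Compounds in acetone were track-sprayed at 15–1000 g ai/ha: pre-emergence onto soil sown the previous day, then top-watered to incorporate and later bottom-watered; post-emergence onto 2–3 leaf plants with 0.25% v/v surfactant, bottom-watered only. Ratings on a 0–100 phytotoxicity scale were taken at day 14.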

[2] = test system: velvetleaf (Abutilon theophrasti, ABUTH); test: as above; settings: pre-emerge, rated 14 days after application, 0 = no damage, 100 = complete death
Procedure, shortened: as §1

[3] = test system: lambsquarters (Chenopodium album, CHEAL); test: as above; settings: pre-emerge, rated 14 days after application, 0 = no damage, 100 = complete death
Procedure, shortened: as §1

[4] = test system: ivyleaf morningglory (Ipomoea hederacea, IPOHE); test: as above; settings: pre-emerge, rated 14 days after application, 0 = no damage, 100 = complete death
Procedure, shortened: as §1

[5] = test system: barnyardgrass (Echinochloa crus-galli, ECHCG); test: as above; settings: pre-emerge, rated 14 days after application, 0 = no damage, 100 = complete death
Procedure, shortened: as §1

[6] = test system: large crabgrass (Digitaria sanguinalis, DIGSA); test: as above; settings: pre-emerge, rated 14 days after application, 0 = no damage, 100 = complete death
Procedure, shortened: as §1

[7] = test system: sicklepod (Cassia obtusifolia, CASOB); test: as above; settings: pre-emerge, rated 14 days after application, 0 = no damage, 100 = complete death
Procedure, shortened: as §1

[8] = test system: green foxtail (Setaria viridis, SETVI); test: as above; settings: pre-emerge, rated 14 days after application, 0 = no damage, 100 = complete death
Procedure, shortened: as §1

[9] = test system: field corn (Zea mays L., var. Dekalb 535, CORN); test: Post-emerge test, crop safety; settings: phytotoxicity rating 0-100 (0 no damage, 100 complete death), 14 days after application
Procedure, shortened: (§2)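 Rating: 0–100 visual injury, 14 DAA. Application: acetone, 187 l/ha, 15–1000 g ai/ha, flat-fan track sprayer with nozzle 40–45 cm above soil or canopy. Post-emerge runs used 0.25% v/v surfactant on 2–3 leaf plants.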

[10] = test system: upland rice (Oryza sp., var. Tebonnet, RICE); test: Post-emerge test, crop safety; settings: phytotoxicity rating 0-100 (0 no damage, 100 complete death), 14 days after application
Procedure, shortened: as §2

[11] = test system: field corn (Zea mays L., var. Dekalb 535, CORN); test: Pre-emerge test, crop safety; settings: pre-emerge, rated 14 days after application, 0 = no damage, 100 = complete death
Procedure, shortened: (§3)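 Plants grown in 10 cm pots of sandy loam mix received acetone-dissolved compounds through a moving flat-fan nozzle. Doses ranged from 15 to 1000 g ai/ha. Pre-emerge pots were seeded one day earlier, post-emerge pots 8–21 days earlier. Fourteen days on, each pot was graded 0–100 for damage.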

[12] = test system: upland rice (Oryza sp., var. Tebonnet, RICE); test: Pre-emerge test, crop safety; settings: pre-emerge, rated 14 days after application, 0 = no damage, 100 = complete death
Procedure, shortened: as §3

[13] = test system: redroot pigweed (Amaranthus retroflexus, AMARE); test: Pre-emerge test, greenhouse herbicide activity screening; settings: pre-emerge, rated 14 days after application, 0 = no damage, 100 = complete death
Procedure, shortened: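 Herbicidal damage is scored 0 (none) to 100 (complete plant death) two weeks after a simulated field spray. Rates span 15–1000 g ai/ha, delivered in acetone at 187 l/ha. For post-emergence treatments, plants have 2–3 leaves and the spray carries 0.25% v/v non-ionic surfactant.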

[14] = test system: johnsongrass (Sorghum halepense, SORHA); test: Post-emerge test, greenhouse herbicide activity screening; settings: phytotoxicity rating 0-100 (0 no damage, 100 complete death), 14 days after application
Procedure, shortened: (§4)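 Compounds in acetone were track-sprayed at 15-1000 g ai/ha (187 l/ha) on sandy loam pots: pre-emerge one day after seeding, post-emerge at 2-3 leaf stage with 0.25% v/v non-ionic surfactant. Phytotoxicity was rated 14 days later on a 0 (no damage) to 100 (complete death) scale.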

[15] = test system: velvetleaf (Abutilon theophrasti, ABUTH); test: as above; settings: phytotoxicity rating 0-100 (0 no damage, 100 complete death), 14 days after application
Procedure, shortened: as §4

[16] = test system: lambsquarters (Chenopodium album, CHEAL); test: as above; settings: phytotoxicity rating 0-100 (0 no damage, 100 complete death), 14 days after application
Procedure, shortened: as §4

[17] = test system: ivyleaf morningglory (Ipomoea hederacea, IPOHE); test: as above; settings: phytotoxicity rating 0-100 (0 no damage, 100 complete death), 14 days after application
Procedure, shortened: as §4

[18] = test system: barnyardgrass (Echinochloa crus-galli, ECHCG); test: as above; settings: phytotoxicity rating 0-100 (0 no damage, 100 complete death), 14 days after application
Procedure, shortened: as §4

[19] = test system: large crabgrass (Digitaria sanguinalis, DIGSA); test: as above; settings: phytotoxicity rating 0-100 (0 no damage, 100 complete death), 14 days after application
Procedure, shortened: as §4

[20] = test system: sicklepod (Cassia obtusifolia, CASOB); test: as above; settings: phytotoxicity rating 0-100 (0 no damage, 100 complete death), 14 days after application
Procedure, shortened: as §4

[21] = test system: redroot pigweed (Amaranthus retroflexus, AMARE); test: as above; settings: phytotoxicity rating 0-100 (0 no damage, 100 complete death), 14 days after application
Procedure, shortened: as §4

[22] = test system: green foxtail (Setaria viridis, SETVI); test: as above; settings: phytotoxicity rating 0-100 (0 no damage, 100 complete death), 14 days after application
Procedure, shortened: as §4

C=CC(=O)N(C(=O)C=C)c1c(OC)c(Cl)cc(F)c1-n1c(=O)cc(C(F)(F)F)n(C)c1=O [2-4]
70: Pre-emerge Herbicidal Activity IPOHE (phytotoxicity rating, scale 0-100) ([4]; 250 g ai/ha) | Post-emerge Herbicidal Activity AMARE ([21]; 250 g ai/ha)
100: Pre-emerge Herbicidal Activity ABUTH (phytotoxicity rating, scale 0-100) ([2]; 250 g ai/ha) | Pre-emerge Herbicidal Activity CHEAL (phytotoxicity rating, scale 0-100) ([3]; 250 g ai/ha)
0: Pre-emerge Herbicidal Activity SORHA (phytotoxicity rating, scale 0-100) ([1]; 63 g ai/ha) | Pre-emerge Herbicidal Activity SORHA (phytotoxicity rating, scale 0-100) ([1]; 250 g ai/ha) | Pre-emerge Herbicidal Activity ECHCG (phytotoxicity rating, scale 0-100) ([5]; 63 g ai/ha) | Pre-emerge Herbicidal Activity ECHCG (phytotoxicity rating, scale 0-100) ([5]; 250 g ai/ha) | Pre-emerge Herbicidal Activity DIGSA (phytotoxicity rating, scale 0-100) ([6]; 63 g ai/ha) | Pre-emerge Herbicidal Activity CASOB (phytotoxicity rating, scale 0-100) ([7]; 63 g ai/ha) | Pre-emerge Herbicidal Activity CASOB (phytotoxicity rating, scale 0-100) ([7]; 250 g ai/ha) | Pre-emerge Herbicidal Activity SETVI (phytotoxicity rating, scale 0-100) ([8]; 63 g ai/ha) | Post-emerge Herbicidal Activity CORN (crop damage) ([9]; 63 g ai/ha) | Post-emerge Herbicidal Activity CORN (crop damage) ([9]; 250 g ai/ha) | Post-emerge Herbicidal Activity RICE (crop damage) ([10]; 63 g ai/ha) | Post-emerge Herbicidal Activity RICE (crop damage) ([10]; 250 g ai/ha) | Pre-emerge crop damage CORN (phytotoxicity rating, scale 0-100) ([11]; 63 g ai/ha) | Pre-emerge crop damage RICE (phytotoxicity rating, scale 0-100) ([12]; 63 g ai/ha) | Post-emerge Herbicidal Activity ABUTH ([15]; 63 g ai/ha) | Post-emerge Herbicidal Activity IPOHE ([17]; 63 g ai/ha) | Post-emerge Herbicidal Activity ECHCG ([18]; 63 g ai/ha) | Post-emerge Herbicidal Activity ECHCG ([18]; 250 g ai/ha) | Post-emerge Herbicidal Activity DIGSA ([19]; 63 g ai/ha) | Post-emerge Herbicidal Activity DIGSA ([19]; 250 g ai/ha) | Post-emerge Herbicidal Activity CASOB ([20]; 63 g ai/ha) | Post-emerge Herbicidal Activity CASOB ([20]; 250 g ai/ha) | Post-emerge Herbicidal Activity AMARE ([21]; 63 g ai/ha) | Post-emerge Herbicidal Activity SETVI ([22]; 63 g ai/ha) | Post-emerge Herbicidal Activity SETVI ([22]; 250 g ai/ha)
95: Pre-emerge Herbicidal Activity AMARE (phytotoxicity rating, scale 0-100) ([13]; 250 g ai/ha)
20: Pre-emerge Herbicidal Activity IPOHE (phytotoxicity rating, scale 0-100) ([4]; 63 g ai/ha) | Pre-emerge crop damage CORN (phytotoxicity rating, scale 0-100) ([11]; 250 g ai/ha) | Post-emerge Herbicidal Activity IPOHE ([17]; 250 g ai/ha)
10: Pre-emerge crop damage RICE (phytotoxicity rating, scale 0-100) ([12]; 250 g ai/ha) | Post-emerge Herbicidal Activity SORHA ([14]; 63 g ai/ha) | Post-emerge Herbicidal Activity SORHA ([14]; 250 g ai/ha)
30: Pre-emerge Herbicidal Activity ABUTH (phytotoxicity rating, scale 0-100) ([2]; 63 g ai/ha)
50: Pre-emerge Herbicidal Activity CHEAL (phytotoxicity rating, scale 0-100) ([3]; 63 g ai/ha) | Pre-emerge Herbicidal Activity DIGSA (phytotoxicity rating, scale 0-100) ([6]; 250 g ai/ha) | Post-emerge Herbicidal Activity ABUTH ([15]; 250 g ai/ha) | Post-emerge Herbicidal Activity CHEAL ([16]; 63 g ai/ha) | Post-emerge Herbicidal Activity CHEAL ([16]; 250 g ai/ha)
80: Pre-emerge Herbicidal Activity SETVI (phytotoxicity rating, scale 0-100) ([8]; 250 g ai/ha) | Pre-emerge Herbicidal Activity AMARE (phytotoxicity rating, scale 0-100) ([13]; 63 g ai/ha)
